In ChEMBL document CHEMBL1641394, “Terpenoids from the aerial parts of Parasenecio deltophylla” (J Nat Prod, 2010):

Assays:
[1] = tested on: Radical scavenging activity; experiment: Antioxidant activity assessed as DPPH radical scavenging activity; type: functional
[2] = Antioxidant activity assessed as ABTS radical scavenging activity by decolorization assay; type: functional
[3] = tested on: HL-60; experiment: Cytotoxicity against human HL60 by MTT assay; type: functional, cell-based
[4] = tested on: HepG2; experiment: Cytotoxicity against human HepG2 by MTT assay; type: functional, cell-based

Row | Structure (SMILES) | IC50 [1] | IC50 [2] | IC50 [3] | IC50 [4]
1 | C/C=C(/C)C(=O)OCc1c(C(C)=O)c(O)c(OC)c2c1[C@@H](C)CC=C2 | > 200 µM | > 200 µM |  | 
2 | CCCCCCCCCCCCCCCC(=O)O[C@H]1CC(C)(C)C2=CC(=O)O[C@]2(C)C1 | > 200 µM | > 200 µM | 47.5 µM | 
3 | Cc1c(C)c2c(c(C)c1O)CCC(C)(C(=O)O)O2 (configuration not stated) [TROLOX] | 13.2 µM | 13.2 µM |  | 
4 | C/C=C(/C)C(=O)OCc1c(C(C)=O)c(O)c(OC)c2c1[C@@H](C)[C@@H]1O[C@@H]1[C@H]2O | > 200 µM | > 200 µM |  | 
5 | C/C=C(/C)C(=O)OCc1c(C(C)=O)c(O)c(OC)c2c1[C@@H](C)[C@@H](O)C=C2 | > 200 µM | > 200 µM |  | 
6 | CO[C@@]12[C@H](COC(N)=O)C3=C(C(=O)C(C)=C(N)C3=O)N1C[C@@H]1N[C@@H]12 [MITOMYCIN] |  |  | 1.5 µM | 5.4 µM
7 | C/C=C(/C)C(=O)OCc1c2c(c(OC)c3occ(C)c13)C(=O)[C@H]1O[C@H]1[C@@H]2C | > 200 µM | > 200 µM | 49.8 µM | 27.8 µM
